Bounds are passed on as bounds.

What all share (type): cell-based
Assay [1] relates to RT-112 (FGFR3-Tacc3 fusion) cells. The assay can be described thus: Cell proliferation assay (CellTiterGlo), RT-112 cells. To be noted: Homo sapiens, RT-112, 72 h, RT112 cells, inhibition of cell growth, intracellular ATP (CellTiterGlo). The text has this:
(§1) The following is a non-limiting example that describes a cell proliferation assay used to determine the biological activity of the compounds of the present disclosure. More specifically, the assay as used to assess the ability of the compounds to inhibit cell proliferation.
(§2) Briefly, SNU-16 (FGFR2-amplification) cells, were resuspended at 18,520c/ml mL in RPMI containing 10% Heat Inactivated FBS, 1% L-glutamine and dispensed in duplicate (463c/well) into 384 well plates. UM-UC-14 (FGFR3-S249C) cells were resuspended at 40.000c/ml mL in RPMI containing 10% Heat Inactivated FBS, 1% L-glutamine and dispensed in duplicate (1000c/well) into 384 well plates. DMS-114 (FGFR1 overexpression) cells and were resuspended at 40,000c/ml mL in RPMI containing 10% Heat Inactivated FBS, 1% L-glutamine and dispensed in duplicate (1000c/well) into 384 well plates. RT-112 (FGFR3-Tacc3 fusion) cells were resuspended at 40,000c/ml mL in RPMI containing 10% Heat Inactivated FBS, 1% L-glutamine and dispensed in duplicate (1000c/well) into 384 well plates. To determine the effect of the compounds of the present disclosure on cell proliferation, SNU-16, UM-UC-14, DMS-114 and RT112 cells were incubated for 72 hours in the presence of vehicle control (DMSO) or a compound of the present disclosure at varying concentrations. Inhibition of cell growth was subsequently determined by luminescent quantification (Envision by Perkin Elmer) of intracellular ATP content using CellTiterGlo (Promega), according to the protocol provided by the manufacturer. To determine the IC50 values, the vehicle-treated cells were normalized as viable cells and analyzed using the CDD Vault software (Collaborative Drug Discovery, Burlingame, CA).

Assay [2] concerns UM-UC-14 (FGFR3-S249C) cells. The assay can be described thus: Cell proliferation assay (CellTiterGlo), UM-UC-14 cells. To be noted: UMUC14, 72 h, inhibition of cell growth, intracellular ATP (CellTiterGlo).
From the text: as §1, §2

Assay [3] relates to SNU-16 (FGFR2-amplification) cells. In words: Cell proliferation assay (CellTiterGlo), SNU-16 cells. To be noted: Homo sapiens, SNU-16, 72 h, inhibition of cell growth, intracellular ATP (CellTiterGlo).
From the text: as §1, §2

Assay [4] has as its system DMS-114 (FGFR1 overexpression) cells. In words: Cell proliferation assay (CellTiterGlo), DMS-114 cells. To be noted: Homo sapiens, 72 hours, inhibition of cell growth, intracellular ATP (CellTiterGlo).
From the text: as §1, §2

On to `Cc1nc2ccc(Oc3ccc4ncc(-c5cnn(CC6CCN(S(=O)(=O)C7CC7)CC6)c5)nc4c3Cl)cc2[nH]1` [Compound 42], for which the IC50 is 0.02 to 0.1 µM in assay [1], 0.02 to 0.1 µM in assay [2], 0.02 to 0.1 µM in assay [3] and at least 0.4 µM in assay [4].

As for `Cc1nc2ccc(Oc3ccc4ncc(-c5cnn(CC6CCN(S(C)(=O)=O)CC6)c5)nc4c3Cl)cc2n1S(C)(=O)=O` [Compound 33], the IC50 in assay [1] was 0.02 to 0.1 µM; in assay [2] it was 0.1 to 0.4 µM; in assay [3] it was 0.02 to 0.1 µM; in assay [4] it was at least 0.4 µM.

In the case of `Cc1nc2ccc(Oc3ccc4ncc(-c5cnn(CC6CNC6)c5)nc4c3Cl)cc2[nH]1` [Compound 16], the IC50 in assay [1] was 0.1 to 0.4 µM; in assay [2], 0.1 to 0.4 µM; in assay [3], 0.1 to 0.4 µM; in assay [4], at least 0.4 µM.

Regarding `Cc1nc2ccc(Oc3ccc4ncc(-c5cn[nH]c5)nc4c3Cl)cc2[nH]1` [Compound 51], the IC50 in assay [1] was 0.1 to 0.4 µM; in assay [2], at least 0.4 µM; in assay [3], at least 0.4 µM; in assay [4], at least 0.4 µM.

As for `Cc1nc2ccc(Oc3ccc4ncc(-c5cnn(C)c5)nc4c3Cl)cc2[nH]1` [Compound 19], the IC50 in assay [1] was 0.02 to 0.1 µM; in assay [2] it was 0.1 to 0.4 µM; in assay [3], 0.1 to 0.4 µM; in assay [4] it was at least 0.4 µM.

Regarding `Cc1nc2ccc(Oc3cc4nc(-c5cnn(CC6CCN(C)CC6)c5)cnc4cc3C)cc2[nH]1` [Compound 50], the IC50 in assay [1], in assay [2], in assay [3] and in assay [4] was at least 0.4 µM each time.

Regarding `Cc1nc2ccc(Oc3ccc4ncc(-c5cnn(CCO)c5)nc4c3Cl)cc2[nH]1` [Compound 15], the IC50 in assay [1] was 0.02 to 0.1 µM; in assay [2], 0.02 to 0.1 µM; in assay [3] it was 0.02 to 0.1 µM; in assay [4], at least 0.4 µM.

For the compound `Cc1nc2ccc(Oc3ccc4ncc(-c5cnn(C6CCNCC6)c5)nc4c3Cl)cc2[nH]1` [Compound 21], the IC50 was under 0.02 µM in assay [1], 0.02 to 0.1 µM in assay [2], 0.02 to 0.1 µM in assay [3] and 0.1 to 0.4 µM in assay [4].

Regarding `Cc1nc2ccc(Oc3ccc4ncc(-c5cnn(CC6CCN(CCO)CC6)c5)nc4c3Cl)cc2[nH]1` [Compound 23], the IC50 in assay [1] is under 0.02 µM; in assay [2], under 0.02 µM; in assay [3], under 0.02 µM; in assay [4], 0.1 to 0.4 µM.

In the case of `Cc1nc2ccc(Oc3ccc4ncc(-c5cnn(CC6CCN(S(=O)(=O)CC#N)CC6)c5)nc4c3Cl)cc2[nH]1` [Compound 28], the IC50 in assay [1] lay in the range of 0.02 to 0.1 µM; in assay [2], 0.02 to 0.1 µM; in assay [3], 0.02 to 0.1 µM; in assay [4], 0.1 to 0.4 µM.

For `Cc1nc2ccc(Oc3ccc4ncc(-c5cnn(CC6CCOC6)c5)nc4c3Cl)cc2[nH]1` (stereo not drawn) [Compound 2], the IC50 in assay [1] was 0.02 to 0.1 µM; in assay [2] it was 0.02 to 0.1 µM; in assay [3] it was 0.02 to 0.1 µM; in assay [4] it was at least 0.4 µM.

Regarding `Cc1nc2cc(Oc3ccc4ncc(-c5cnn(CC6CCOCC6)c5)nc4c3)ccc2[nH]1` [Compound 62], the IC50 in assay [1] is 0.02 to 0.1 µM; in assay [2], 0.1 to 0.4 µM; in assay [3] it was 0.02 to 0.1 µM; in assay [4], at least 0.4 µM.

On to `Cc1nc2ccc(Oc3ccc4ncc(-c5cnn(C6CCC(F)(F)CC6)c5)nc4c3Cl)cc2[nH]1` [Compound 66], for which the IC50 was 0.1 to 0.4 µM in assay [1], 0.1 to 0.4 µM in assay [2], 0.1 to 0.4 µM in assay [3] and at least 0.4 µM in assay [4].

Take `Cc1nc2ccc(Oc3ccc4ncc(-c5cnn(CC6CCC(F)(F)CC6)c5)nc4c3Cl)cc2[nH]1` [Compound 9]: the IC50 was 0.02 to 0.1 µM in assay [1], 0.02 to 0.1 µM in assay [2], 0.02 to 0.1 µM in assay [3] and at least 0.4 µM in assay [4].

As to `Cc1nc2c(C#N)cc(Oc3ccc4ncc(-c5cnn(CC6CCN(C)CC6)c5)nc4c3Cl)cc2[nH]1` [Compound 41], the IC50 in assay [1] is 0.1 to 0.4 µM; in assay [2] it was 0.1 to 0.4 µM; in assay [3], 0.1 to 0.4 µM; in assay [4], at least 0.4 µM.

(Values after patent US20240368181A1, “QUINOXALINE DERIVATIVES AND USES THEREOF” (Black Diamond Therapeutics, Inc., priority 2021, published 2024).)
